From ChEMBL document CHEMBL6103629 (J Med Chem, 2025)
Active and inactive are the calls of the source. The calls are words filed in the database; no cut-off is given here.

What was measured:
CWR22R [1] = assay: Antiproliferative activity against human 22Rv1 cells incubated for 120 hrs by Cell-titer Glo luminescent assay; details: 22Rv1, 120 h
MDA-MB-453 = assay: Antiproliferative activity against human MDA-MB-453 cells assessed as reduction in cell viability incubated for 120 hrs by Cell-titer Glo luminescent assay; type: functional, cell-based
LoVo [2] = assay: Inhibition of DNA damage repair in human LoVo cells assessed as upregulation of p-Histone H2A.X protein level at 0.3 to 1 uM incubated for 24 hrs by Western blot analysis; type: functional, cell-based; details: dose 0.3-1 µM
LoVo [3] = assay: Inhibition of DNA damage repair in human LoVo cells assessed as decrease in MRE11 expression level incubated for 24 hrs by Western blot analysis; type: functional, cell-based; details: dose 0.3-1 µM
MDA-MB-231 = assay: Antiproliferative activity against human MDA-MB-231 cells assessed as reduction in cell viability incubated for 120 hrs by Cell-titer Glo luminescent assay; type: functional, cell-based
LNCaP = assay: Antiproliferative activity against human LNCaP cells assessed as reduction in cell viability incubated for 120 hrs by Cell-titer Glo luminescent assay; type: functional, cell-based
T-24 = assay: Antiproliferative activity against human T24 cells assessed as reduction in cell viability incubated for 120 hrs by Cell-titer Glo luminescent assay; type: functional, cell-based
[4] = target: Proto-oncogene tyrosine-protein kinase ROS (Homo sapiens) (UniProt P08922); assay: Inhibition of ROS1 (unknown origin) at 10 uM preincubated for 15 mins and measured after 60 mins by Z-LYTE screening relative to control; details: time 75.0 min
LoVo [5] = assay: Inhibition of DNA damage repair in human LoVo cells assessed as decrease in RAD51 expression level incubated for 24 hrs by Western blot analysis; type: functional, cell-based; details: dose 0.3-1 µM
NCI-H1703 [6] = assay: Antiproliferative activity against human NCI-H1703 cells assessed as reduction in cell viability incubated for 120 hrs by Cell-titer Glo luminescent assay; type: functional, cell-based
U2OS = assay: Antiproliferative activity against human U2OS cells assessed as reduction in cell viability incubated for 120 hrs by Cell-titer Glo luminescent assay; type: functional, cell-based
SK-OV-3 = assay: Antiproliferative activity against human SK-OV-3 cells assessed as reduction in cell viability incubated for 120 hrs by Cell-titer Glo luminescent assay; type: functional, cell-based
HCT-116 = assay: Antiproliferative activity against human HCT-116 cells assessed as reduction in cell viability incubated for 120 hrs by Cell-titer Glo luminescent assay; type: functional, cell-based
KATO III = assay: Antiproliferative activity against human KATO III stomach cancer cell line assessed as reduction in cell viability incubated for 120 hrs by Cell-titer Glo luminescent assay; type: functional, cell-based
NCI-H69 = assay: Antiproliferative activity against human NCI-H69 cells assessed as reduction in cell viability incubated for 120 hrs by Cell-titer Glo luminescent assay; type: functional, cell-based
MDA-MB-436 = assay: Antiproliferative activity against human MDA-MB-436 cells assessed as reduction in cell viability incubated for 120 hrs by Cell-titer Glo luminescent assay; type: functional, cell-based
[7] = target: Serine/threonine-protein kinase mTOR (Homo sapiens, UniProt P42345); assay: Inhibition of mTOR (unknown origin) at 10 uM preincubated for 15 mins and measured after 60 mins by Z-LYTE screening relative to control; details: time 75.0 min
LoVo [8] = assay: Induction of cell cycle arrest in human LoVo cells assessed as accumulation of cells at G2 phase incubated for 24 hrs by PI staining based flow cytometric analysis; type: functional; details: dose 1-3 µM
A549 = assay: Antiproliferative activity against human A549 cells assessed as reduction in cell viability incubated for 120 hrs by Cell-titer Glo luminescent assay; type: functional, cell-based
A2780 = assay: Antiproliferative activity against human A2780 cells assessed as reduction in cell viability incubated for 120 hrs by Cell-titer Glo luminescent assay; type: functional, cell-based
OVCAR-8 = assay: Antiproliferative activity against human OVCAR-8 cells assessed as reduction in cell viability incubated for 120 hrs by Cell-titer Glo luminescent assay; type: functional, cell-based
CWR22R [9] = assay: Antiproliferative activity against human 22Rv1 cells incubated for 120 hrs by Cell-titer Glo luminescent assay
JeKo-1 [10] = assay: Antitumor activity against human JeKo-1 cells xenografted in female CB17 SCID mouse at 40 mg/kg BID, po administered as 3 days on and 4 days off schedule for 24 days; type: functional, organism-based; details: time 24.0 day
Homo sapiens = organism: Homo sapiens; assay: Inhibition of DNA-PK (unknown origin) at 10 uM preincubated for 15 mins and measured after 60 mins by Z-LYTE screening relative to control; details: time 75.0 min
[11] = target: Phosphatidylinositol 4-phosphate 3-kinase C2 domain-containing subunit beta (Homo sapiens) (UniProt O00750); assay: Inhibition of PIK3C2B (unknown origin) at 10 uM preincubated for 15 mins and measured after 60 mins by Z-LYTE screening relative to control; details: time 75.0 min
CWR22R [12] = assay: Antitumor activity against human 22Rv1 cells xenografted in male Balb/c nude mouse assessed as tumor growth inhibition at 10 to 60 mg/kg QD, po measured every 3 days for 18 days; type: functional, organism-based; details: dose 10-60 mg/kg, time 18.0 day
LoVo [13] = assay: Inhibition of DNA damage repair in human LoVo cells assessed as decrease in Chk1 expression level incubated for 24 hrs by Western blot analysis; type: functional, cell-based; details: dose 0.3-1 µM
JeKo-1 [14] = assay: Antiproliferative activity against human JeKo-1 cells assessed as reduction in cell viability incubated for 120 hrs by Cell-titer Glo luminescent assay; type: functional, cell-based
[15] = target: Kappa-type opioid receptor (Homo sapiens) (UniProt P41145); assay: Inhibition of human kappa opioid at 10 uM; details: time 75.0 min
MCF7 = assay: Antiproliferative activity against human MCF7 cells assessed as reduction in cell viability incubated for 120 hrs by Cell-titer Glo luminescent assay; type: functional, cell-based
HepG2 = assay: Antiproliferative activity against human HepG2 cells assessed as reduction in cell viability incubated for 120 hrs by Cell-titer Glo luminescent assay; type: functional, cell-based
Huh-7 = assay: Antiproliferative activity against human Huh-7 cells assessed as reduction in cell viability incubated for 120 hrs by Cell-titer Glo luminescent assay; type: functional, cell-based
[16] = target: Serine/threonine-protein kinase ATR (Homo sapiens, UniProt Q13535); assay: Inhibition of ATR (unknown origin) assessed as reduction in p53 phosphorylation level incubated for 30 mins by TR-FRET assay
NCI-H146 = assay: Antiproliferative activity against human NCI-H146 cells; type: functional, cell-based
NCI-H1703 [17] = assay: Antitumor activity against human NCI-H1703 cells xenografted in female Balb/c nude mouse assessed as tumor growth inhibition at 50 mg/kg […] administered as 3 days on and 4 days off schedule for 4 weeks relative to control; type: functional; details: NCI-H1703, 672 h, time 28 day, read-out: TGI

Chain of Serine/threonine-protein kinase ATR (Q13535 whole entry): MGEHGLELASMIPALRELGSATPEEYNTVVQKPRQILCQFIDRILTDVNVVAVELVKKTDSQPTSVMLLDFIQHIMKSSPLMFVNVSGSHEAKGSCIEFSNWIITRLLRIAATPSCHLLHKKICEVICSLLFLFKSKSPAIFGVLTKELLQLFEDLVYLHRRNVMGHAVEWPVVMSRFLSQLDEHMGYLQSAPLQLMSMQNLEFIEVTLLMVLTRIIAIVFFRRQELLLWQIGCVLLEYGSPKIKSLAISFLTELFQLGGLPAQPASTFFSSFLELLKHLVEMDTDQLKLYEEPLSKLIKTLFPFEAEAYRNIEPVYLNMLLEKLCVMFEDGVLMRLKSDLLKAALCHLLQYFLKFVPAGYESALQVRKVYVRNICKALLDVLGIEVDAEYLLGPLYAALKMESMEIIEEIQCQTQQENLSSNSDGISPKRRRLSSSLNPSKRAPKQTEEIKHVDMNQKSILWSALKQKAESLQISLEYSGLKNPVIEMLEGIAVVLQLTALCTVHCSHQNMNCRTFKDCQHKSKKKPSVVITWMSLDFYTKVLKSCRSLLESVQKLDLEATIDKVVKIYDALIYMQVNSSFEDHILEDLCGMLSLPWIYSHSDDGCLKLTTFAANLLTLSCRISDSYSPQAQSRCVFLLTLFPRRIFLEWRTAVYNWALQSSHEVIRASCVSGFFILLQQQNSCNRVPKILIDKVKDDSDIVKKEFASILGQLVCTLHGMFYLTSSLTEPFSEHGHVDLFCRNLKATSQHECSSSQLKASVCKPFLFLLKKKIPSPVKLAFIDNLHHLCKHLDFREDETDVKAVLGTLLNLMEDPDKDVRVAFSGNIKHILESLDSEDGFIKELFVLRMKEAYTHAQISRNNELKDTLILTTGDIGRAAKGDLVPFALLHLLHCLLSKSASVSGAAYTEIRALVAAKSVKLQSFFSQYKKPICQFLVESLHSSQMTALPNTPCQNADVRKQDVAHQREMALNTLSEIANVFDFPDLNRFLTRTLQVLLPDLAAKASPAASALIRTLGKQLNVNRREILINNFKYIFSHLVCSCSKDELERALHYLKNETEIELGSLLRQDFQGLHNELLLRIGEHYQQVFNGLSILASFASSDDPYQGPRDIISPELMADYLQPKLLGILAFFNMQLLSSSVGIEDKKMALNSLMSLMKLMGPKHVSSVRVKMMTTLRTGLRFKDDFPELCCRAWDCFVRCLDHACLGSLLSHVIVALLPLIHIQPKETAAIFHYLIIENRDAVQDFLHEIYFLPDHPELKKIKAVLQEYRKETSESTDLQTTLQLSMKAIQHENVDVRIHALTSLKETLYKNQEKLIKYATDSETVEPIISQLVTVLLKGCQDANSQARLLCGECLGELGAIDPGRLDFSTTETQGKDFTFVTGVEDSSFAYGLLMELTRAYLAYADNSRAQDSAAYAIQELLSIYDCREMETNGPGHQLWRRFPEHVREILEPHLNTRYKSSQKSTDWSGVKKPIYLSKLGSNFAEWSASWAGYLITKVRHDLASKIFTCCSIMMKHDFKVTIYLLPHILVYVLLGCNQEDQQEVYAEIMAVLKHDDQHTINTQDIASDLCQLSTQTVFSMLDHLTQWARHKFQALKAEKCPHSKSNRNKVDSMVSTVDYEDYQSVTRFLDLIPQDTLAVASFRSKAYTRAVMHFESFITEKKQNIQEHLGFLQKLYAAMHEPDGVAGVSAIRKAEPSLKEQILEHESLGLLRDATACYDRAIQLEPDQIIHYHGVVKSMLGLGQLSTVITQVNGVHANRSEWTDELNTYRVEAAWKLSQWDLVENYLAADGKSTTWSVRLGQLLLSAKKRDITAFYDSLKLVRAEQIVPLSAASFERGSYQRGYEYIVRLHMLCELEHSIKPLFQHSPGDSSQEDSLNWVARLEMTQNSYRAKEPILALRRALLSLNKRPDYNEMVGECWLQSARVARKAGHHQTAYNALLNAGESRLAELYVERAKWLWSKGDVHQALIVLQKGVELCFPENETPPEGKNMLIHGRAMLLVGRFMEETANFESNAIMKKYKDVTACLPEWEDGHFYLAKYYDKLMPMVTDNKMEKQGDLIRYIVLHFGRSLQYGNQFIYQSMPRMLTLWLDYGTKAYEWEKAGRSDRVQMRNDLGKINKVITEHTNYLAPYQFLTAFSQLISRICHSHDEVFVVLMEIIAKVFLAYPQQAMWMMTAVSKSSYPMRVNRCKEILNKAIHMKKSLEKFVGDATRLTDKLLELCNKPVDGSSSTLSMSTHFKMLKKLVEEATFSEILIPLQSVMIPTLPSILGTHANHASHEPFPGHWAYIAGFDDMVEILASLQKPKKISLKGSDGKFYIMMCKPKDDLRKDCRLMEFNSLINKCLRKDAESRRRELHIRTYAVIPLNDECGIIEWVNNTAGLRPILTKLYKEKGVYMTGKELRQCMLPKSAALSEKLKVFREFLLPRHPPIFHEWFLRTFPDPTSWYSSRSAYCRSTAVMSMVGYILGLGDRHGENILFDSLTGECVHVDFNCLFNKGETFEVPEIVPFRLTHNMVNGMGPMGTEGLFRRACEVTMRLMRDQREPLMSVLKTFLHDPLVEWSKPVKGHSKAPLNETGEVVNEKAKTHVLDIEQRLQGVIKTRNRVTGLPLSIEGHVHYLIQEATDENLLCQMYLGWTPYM
Chain of Phosphatidylinositol 4-phosphate 3-kinase C2 domain-containing subunit beta (Homo sapiens) (O00750 whole entry, the tested form may be a part): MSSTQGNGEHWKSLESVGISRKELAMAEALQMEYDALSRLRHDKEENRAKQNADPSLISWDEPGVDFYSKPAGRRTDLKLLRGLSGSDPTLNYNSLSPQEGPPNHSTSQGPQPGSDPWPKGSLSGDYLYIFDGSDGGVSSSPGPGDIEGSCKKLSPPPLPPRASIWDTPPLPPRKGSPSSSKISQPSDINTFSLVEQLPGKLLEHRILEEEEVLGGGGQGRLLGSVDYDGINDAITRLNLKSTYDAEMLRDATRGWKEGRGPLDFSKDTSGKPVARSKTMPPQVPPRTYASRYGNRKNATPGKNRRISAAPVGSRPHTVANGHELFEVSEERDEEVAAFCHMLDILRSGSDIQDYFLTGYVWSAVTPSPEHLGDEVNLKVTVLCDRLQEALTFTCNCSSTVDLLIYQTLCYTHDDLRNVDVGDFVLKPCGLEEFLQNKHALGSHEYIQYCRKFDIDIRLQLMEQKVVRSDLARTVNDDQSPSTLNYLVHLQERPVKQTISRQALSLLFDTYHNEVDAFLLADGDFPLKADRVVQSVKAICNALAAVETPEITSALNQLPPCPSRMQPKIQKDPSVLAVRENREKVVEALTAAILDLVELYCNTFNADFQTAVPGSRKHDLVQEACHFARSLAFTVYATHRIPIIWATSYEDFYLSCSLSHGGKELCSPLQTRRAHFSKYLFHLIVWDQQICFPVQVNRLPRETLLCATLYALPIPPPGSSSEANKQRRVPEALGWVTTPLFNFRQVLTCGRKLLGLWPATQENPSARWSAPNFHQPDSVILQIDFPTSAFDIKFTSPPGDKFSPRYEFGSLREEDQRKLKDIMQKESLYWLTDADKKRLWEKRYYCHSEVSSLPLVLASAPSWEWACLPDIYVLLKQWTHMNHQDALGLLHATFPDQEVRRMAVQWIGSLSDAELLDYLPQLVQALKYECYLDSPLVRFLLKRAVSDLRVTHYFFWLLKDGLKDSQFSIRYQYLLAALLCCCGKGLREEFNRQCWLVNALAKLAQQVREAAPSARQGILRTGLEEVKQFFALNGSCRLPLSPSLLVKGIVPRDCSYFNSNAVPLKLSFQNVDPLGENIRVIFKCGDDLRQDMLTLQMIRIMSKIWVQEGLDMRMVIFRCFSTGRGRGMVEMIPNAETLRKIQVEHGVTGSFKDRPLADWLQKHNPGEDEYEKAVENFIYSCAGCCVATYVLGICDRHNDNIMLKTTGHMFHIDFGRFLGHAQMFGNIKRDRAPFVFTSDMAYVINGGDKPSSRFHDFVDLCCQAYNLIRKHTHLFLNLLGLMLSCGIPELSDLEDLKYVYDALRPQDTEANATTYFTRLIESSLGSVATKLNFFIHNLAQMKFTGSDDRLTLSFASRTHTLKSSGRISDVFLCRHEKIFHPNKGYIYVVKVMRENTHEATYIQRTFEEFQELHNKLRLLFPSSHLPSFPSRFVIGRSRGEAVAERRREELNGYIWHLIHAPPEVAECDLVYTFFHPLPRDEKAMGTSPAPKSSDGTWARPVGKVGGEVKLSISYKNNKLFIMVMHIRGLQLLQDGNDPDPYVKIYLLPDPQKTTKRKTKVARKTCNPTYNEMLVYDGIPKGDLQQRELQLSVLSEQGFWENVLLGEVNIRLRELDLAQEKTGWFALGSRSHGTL
Chain of Kappa-type opioid receptor (Homo sapiens) (P41145 whole entry): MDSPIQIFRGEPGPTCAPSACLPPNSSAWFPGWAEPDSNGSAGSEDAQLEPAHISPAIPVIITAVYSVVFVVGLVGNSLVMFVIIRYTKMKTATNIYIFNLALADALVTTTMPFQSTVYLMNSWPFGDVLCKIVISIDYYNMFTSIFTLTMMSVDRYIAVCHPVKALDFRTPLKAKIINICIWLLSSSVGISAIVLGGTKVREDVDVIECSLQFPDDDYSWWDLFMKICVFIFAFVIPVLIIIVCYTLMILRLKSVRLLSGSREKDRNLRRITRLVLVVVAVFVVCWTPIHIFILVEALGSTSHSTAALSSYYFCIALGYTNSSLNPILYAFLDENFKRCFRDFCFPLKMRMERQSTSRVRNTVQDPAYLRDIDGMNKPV

Cc1n[nH]c(C)c1-c1cc(N2CC3CCC(C2)O3)n2ncc(-c3cnn(C)c3)c2n1
IC50 (CWR22R [1]): 943 nM

Cc1nn(-c2cccnc2)c(C)c1-c1cc(N2CC3CCC(C2)O3)nc2c(-c3ccn[nH]3)cnn12 [listing 1 of 2 here]
Activity (MDA-MB-453): Active
inhibition (LoVo [2]): Active
inhibition (LoVo [3]): Dose-dependent-effect
Activity (MDA-MB-231): Active
Activity (LNCaP): Active
Activity (T-24): Active
inhibition [4]: > 80%
inhibition (LoVo [5]): Dose-dependent-effect
Activity (NCI-H1703 [6]): Active
Activity (U2OS): Active
Activity (SK-OV-3): Active
Activity (HCT-116): Active
Activity (KATO III): Active
Activity (NCI-H69): Active
Activity (MDA-MB-436): Active
inhibition [7]: > 80%
Activity (LoVo [8]): Dose-dependent-effect
Activity (A549): Active
Activity (A2780): Active
Activity (OVCAR-8): Active
Activity (CWR22R [9]): Active
Activity (JeKo-1 [10]): Active
inhibition (Homo sapiens): > 80%
inhibition [11]: > 80%
TGI (CWR22R [12]): Active
inhibition (LoVo [13]): Dose-dependent-effect
Activity (JeKo-1 [14]): Active
inhibition [15]: Active
Activity (MCF7): Active
Activity (HepG2): Active
Activity (Huh-7): Active

Cc1nn(-c2cccnc2)c(C)c1-c1cc(N2C[C@@H]3C[C@H]2CO3)nc2c(-c3ccn[nH]3)cnn12
IC50 (CWR22R [1]): 4080 nM

Cc1cncc(-n2nc(C)c(-c3cc(N4CC5CCC(C4)O5)nc4c(-c5ccn[nH]5)cnn34)c2C)c1
IC50 [16]: 10 nM
IC50 (CWR22R [1]): 234 nM

Cc1nn(-c2cncc(Cl)c2)c(C)c1-c1cc(N2CC3CCC(C2)O3)nc2c(-c3ccn[nH]3)cnn12
IC50 (CWR22R [1]): 675 nM

CCOc1cncc(-n2nc(C)c(-c3cc(N4CC5CCC(C4)O5)nc4c(-c5ccn[nH]5)cnn34)c2C)c1
IC50 (CWR22R [1]): 515 nM

Cc1n[nH]c(C)c1-c1cc(N2CC3CCC(C2)O3)n2ncc(-c3cnn(C)c3C)c2n1
IC50 [16]: > 500 nM
IC50 (CWR22R [1]): > 10000 nM

Cc1n[nH]c(C)c1-c1cc(N2CC3CCC(C2)O3)n2ncc(-c3ccccc3)c2n1
IC50 [16]: > 500 nM
IC50 (CWR22R [1]): > 10000 nM

Cc1n[nH]c(C)c1-c1cc(N2CC3CCC(C2)O3)nc2c(-c3ccn[nH]3)cnn12
IC50 (CWR22R [1]): 614 nM

Cn1cncc1-c1c(F)cncc1NC(=O)c1c(N)nn2cc(F)cnc12 [TUVUSERTIB]
IC50 [16]: < 1000 nM
IC50 (NCI-H146): 730 nM

COc1cncc(-n2nc(C)c(-c3cc(N4CC5CCC(C4)O5)nc4c(-c5ccn[nH]5)cnn34)c2C)c1
IC50 (CWR22R [1]): 370 nM

Cc1nn(-c2ccc(N)nc2)c(C)c1-c1cc(N2CC3CCC(C2)O3)nc2c(-c3ccn[nH]3)cnn12
IC50 (CWR22R [1]): 199 nM

Cc1nn(-c2cccnc2)c(C)c1-c1cc(N2CC3CCC(C2)O3)nc2c(-c3ccn[nH]3)cnn12 [listing 2 of 2 here]
IC50 (CWR22R [1]): 216 nM

Cc1n[nH]c(C)c1-c1cc(N2CC3CCC(C2)O3)nc2c(-c3ccccc3)cnn12
IC50 (CWR22R [1]): 872 nM

Nc1ccn([C@@H]2O[C@H](CO)[C@@H](O)C2(F)F)c(=O)n1 [GEMCITABINE]
inhibition in vivo at 50 mg/kg (NCI-H1703 [17]): 76.7%

Cc1cc(-c2cnn3c(-c4c(C)nn(-c5cccnc5)c4C)cc(N4CC5CCC(C4)O5)nc23)[nH]n1
IC50 (CWR22R [1]): 150 nM

Cc1nn(-c2cncc(C#N)c2)c(C)c1-c1cc(N2CC3CCC(C2)O3)nc2c(-c3ccn[nH]3)cnn12
IC50 (CWR22R [1]): 1410 nM
